In brackets after ≈: the same amount, converted by molar mass.
What was measured:
Type in all cases: functional
Clostridium = experiment: Antibacterial activity against Clostridium hypermegas by CLSI M11-A6 agar dilution method
Phocaeicola vulgatus = experiment: Antibacterial activity against Bacteroides vulgatus by CLSI M11-A6 agar dilution method
Eggerthella lenta = experiment: Antibacterial activity against Eggerthella lenta by CLSI M11-A6 agar dilution method
[1] = tested on: Enterocloster clostridioformis; experiment: Antibacterial activity against Clostridium clostridioforme by CLSI M11-A6 agar dilution method
Bacteroides ovatus = experiment: Antibacterial activity against Bacteroides ovatus by CLSI M11-A6 agar dilution method
Holdemania filiformis = experiment: Antibacterial activity against Holdemania filiformis by CLSI M11-A6 agar dilution method
[2] = tested on: Ruminococcus flavefaciens; experiment: Antibacterial activity against Ruminococcus flavefaciens by CLSI M11-A6 agar dilution method
Clostridium scindens = experiment: Antibacterial activity against Clostridium scindens by CLSI M11-A6 agar dilution method
Blautia producta = experiment: Antibacterial activity against Ruminococcus productus by CLSI M11-A6 agar dilution method
Ruminococcus sp. = experiment: Antibacterial activity against Ruminococcus sp. by CLSI M11-A6 agar dilution method
Clostridium leptum = experiment: Antibacterial activity against Clostridium leptum by CLSI M11-A6 agar dilution method
Prevotella intermedia = experiment: Antibacterial activity against Prevotella intermedia by CLSI M11-A6 agar dilution method
Hoylesella oralis = experiment: Antibacterial activity against Prevotella oralis by CLSI M11-A6 agar dilution method
Bacteroides fragilis = experiment: Antibacterial activity against Bacteroides fragilis by CLSI M11-A6 agar dilution method
Prevotella denticola = experiment: Antibacterial activity against Prevotella P denticola by CLSI M11-A6 agar dilution method
[3] = tested on: Peptostreptococcus anaerobius; experiment: Antibacterial activity against Peptostreptococcus anaerobius by CLSI M11-A6 agar dilution method
Bifidobacterium bifidum = experiment: Antibacterial activity against Bifidobacterium bifidum by CLSI M11-A6 agar dilution method
[4] = tested on: Paraclostridium bifermentans; experiment: Antibacterial activity against Clostridium bifermentans by CLSI M11-A6 agar dilution method
Clostridium bolteae = experiment: Antibacterial activity against Clostridium bolteae by CLSI M11-A6 agar dilution method; details: Enterocloster bolteae
Anaerococcus prevotii = experiment: Antibacterial activity against Anaerococcus prevotii by CLSI M11-A6 agar dilution method
Clostridium glycolicum = experiment: Antibacterial activity against Clostridium glycolicum by CLSI M11-A6 agar dilution method; details: Terrisporobacter glycolicus
Fusobacterium mortiferum = experiment: Antibacterial activity against Fusobacterium mortiferum by CLSI M11-A6 agar dilution method
Prevotella disiens = experiment: Antibacterial activity against Prevotella P disiens by CLSI M11-A6 agar dilution method
Thomasclavelia ramosa = experiment: Antibacterial activity against Clostridium ramosum by CLSI M11-A6 agar dilution method
Bifidobacterium dentium = experiment: Antibacterial activity against Bifidobacterium dentium by CLSI M11-A6 agar dilution method
[5] = tested on: Propionibacterium propionicum; experiment: Antibacterial activity against Propionibacterium propionicus by CLSI M11-A6 agar dilution method; details: Arachnia propionica
Hoylesella loescheii = experiment: Antibacterial activity against Prevotella loescheii by CLSI M11-A6 agar dilution method
Clostridium beijerinckii = experiment: Antibacterial activity against Clostridium beijerinckii by CLSI M11-A6 agar dilution method
Parvimonas micra = experiment: Antibacterial activity against Peptostreptococcus micros by CLSI M11-A6 agar dilution method
[6] = tested on: Parabacteroides distasonis; experiment: Antibacterial activity against Parabacteroides distasonis by CLSI M11-A6 agar dilution method
Bifidobacterium breve = experiment: Antibacterial activity against Bifidobacterium breve by CLSI M11-A6 agar dilution method
Ruminococcus gnavus = experiment: Antibacterial activity against Ruminococcus gnavus by CLSI M11-A6 agar dilution method; details: Mediterraneibacter gnavus
Bilophila wadsworthia = experiment: Antibacterial activity against Bilophila wadsworthia by CLSI M11-A6 agar dilution method
Clostridium tertium = experiment: Antibacterial activity against Clostridium tertium by CLSI M11-A6 agar dilution method
Actinomyces naeslundii = experiment: Antibacterial activity against Actinomyces naeslundii by CLSI M11-A6 agar dilution method
[7] = tested on: Prevotella melaninogenica; experiment: Antibacterial activity against Prevotella melaninogenica by CLSI M11-A6 agar dilution method
[Clostridium] innocuum = Antibacterial activity against Clostridium innocuum by CLSI M11-A6 agar dilution method
[8] = tested on: Sutterella wadsworthensis; experiment: Antibacterial activity against Sutterella wadsworthensis by CLSI M11-A6 agar dilution method
[9] = tested on: Streptococcus constellatus; experiment: Antibacterial activity against Streptococcus constellatus by CLSI M11-A6 agar dilution method

Cc1ncc([N+](=O)[O-])n1CCO [METRONIDAZOLE]
MIC50 (Clostridium): 0.25 µg/mL (≈ 1.46 µM) | MIC90 (Clostridium): 1 µg/mL (≈ 5.84 µM) | MIC50 (Phocaeicola vulgatus): 0.5 µg/mL (≈ 2.92 µM) | MIC90 (Phocaeicola vulgatus): 1 µg/mL (≈ 5.84 µM) | MIC50 (Eggerthella lenta): 1 µg/mL (≈ 5.84 µM) | MIC90 (Eggerthella lenta): 128 µg/mL (≈ 748 µM) | MIC [1]: ≤ 0.12 µg/mL | MIC50 [1]: ≤ 0.12 µg/mL | MIC90 [1]: ≤ 0.12 µg/mL | MIC50 (Bacteroides ovatus): 1 µg/mL (≈ 5.84 µM) | MIC90 (Bacteroides ovatus): 2 µg/mL (≈ 11.7 µM) | MIC50 (Holdemania filiformis): 1 µg/mL (≈ 5.84 µM) | MIC90 (Holdemania filiformis): 128 µg/mL (≈ 748 µM) | MIC50 [2]: ≤ 0.12 µg/mL | MIC90 [2]: 0.25 µg/mL (≈ 1.46 µM) | MIC50 (Clostridium scindens): 0.25 µg/mL (≈ 1.46 µM) | MIC90 (Clostridium scindens): 1 µg/mL (≈ 5.84 µM) | MIC50 (Blautia producta): ≤ 0.12 µg/mL | MIC90 (Blautia producta): 0.25 µg/mL (≈ 1.46 µM) | MIC50 (Ruminococcus sp.): 0.5 µg/mL (≈ 2.92 µM) | MIC90 (Ruminococcus sp.): 2 µg/mL (≈ 11.7 µM) | MIC50 (Clostridium leptum): 0.25 µg/mL (≈ 1.46 µM) | MIC90 (Clostridium leptum): 1 µg/mL (≈ 5.84 µM) | MIC50 (Prevotella intermedia): 0.5 µg/mL (≈ 2.92 µM) | MIC90 (Prevotella intermedia): 1 µg/mL (≈ 5.84 µM) | MIC50 (Hoylesella oralis): 0.5 µg/mL (≈ 2.92 µM) | MIC90 (Hoylesella oralis): 1 µg/mL (≈ 5.84 µM) | MIC50 (Bacteroides fragilis): 1 µg/mL (≈ 5.84 µM) | MIC90 (Bacteroides fragilis): 2 µg/mL (≈ 11.7 µM) | MIC50 (Prevotella denticola): 0.5 µg/mL (≈ 2.92 µM) | MIC90 (Prevotella denticola): 1 µg/mL (≈ 5.84 µM) | MIC50 [3]: 0.5 µg/mL (≈ 2.92 µM) | MIC90 [3]: 2 µg/mL (≈ 11.7 µM) | MIC50 (Bifidobacterium bifidum): 1 µg/mL (≈ 5.84 µM) | MIC90 (Bifidobacterium bifidum): 128 µg/mL (≈ 748 µM) | MIC50 [4]: 0.25 µg/mL (≈ 1.46 µM) | MIC90 [4]: 1 µg/mL (≈ 5.84 µM) | MIC50 (Clostridium bolteae): ≤ 0.12 µg/mL | MIC90 (Clostridium bolteae): 0.25 µg/mL (≈ 1.46 µM) | MIC50 (Anaerococcus prevotii): 0.5 µg/mL (≈ 2.92 µM) | MIC90 (Anaerococcus prevotii): 2 µg/mL (≈ 11.7 µM) | MIC50 (Clostridium glycolicum): 0.25 µg/mL (≈ 1.46 µM) | MIC90 (Clostridium glycolicum): 1 µg/mL (≈ 5.84 µM) | MIC50 (Fusobacterium mortiferum): ≤ 0.12 µg/mL | MIC90 (Fusobacterium mortiferum): 0.25 µg/mL (≈ 1.46 µM) | MIC50 (Prevotella disiens): 0.5 µg/mL (≈ 2.92 µM) | MIC90 (Prevotella disiens): 1 µg/mL (≈ 5.84 µM) | MIC50 (Thomasclavelia ramosa): 0.5 µg/mL (≈ 2.92 µM) | MIC90 (Thomasclavelia ramosa): 1 µg/mL (≈ 5.84 µM) | MIC50 (Bifidobacterium dentium): 1 µg/mL (≈ 5.84 µM) | MIC90 (Bifidobacterium dentium): 128 µg/mL (≈ 748 µM) | MIC50 [5]: 1 µg/mL (≈ 5.84 µM) | MIC90 [5]: 128 µg/mL (≈ 748 µM) | MIC50 (Hoylesella loescheii): 0.5 µg/mL (≈ 2.92 µM) | MIC90 (Hoylesella loescheii): 1 µg/mL (≈ 5.84 µM) | MIC50 (Clostridium beijerinckii): 0.25 µg/mL (≈ 1.46 µM) | MIC90 (Clostridium beijerinckii): 1 µg/mL (≈ 5.84 µM) | MIC50 (Parvimonas micra): 0.5 µg/mL (≈ 2.92 µM) | MIC90 (Parvimonas micra): 2 µg/mL (≈ 11.7 µM) | MIC50 [6]: 1 µg/mL (≈ 5.84 µM) | MIC90 [6]: 2 µg/mL (≈ 11.7 µM) | MIC50 (Bifidobacterium breve): 1 µg/mL (≈ 5.84 µM) | MIC90 (Bifidobacterium breve): 128 µg/mL (≈ 748 µM) | MIC50 (Ruminococcus gnavus): 0.25 µg/mL (≈ 1.46 µM) | MIC90 (Ruminococcus gnavus): 0.25 µg/mL (≈ 1.46 µM) | MIC50 (Bilophila wadsworthia): ≤ 0.12 µg/mL | MIC90 (Bilophila wadsworthia): 0.25 µg/mL (≈ 1.46 µM) | MIC50 (Clostridium tertium): 0.25 µg/mL (≈ 1.46 µM) | MIC90 (Clostridium tertium): 1 µg/mL (≈ 5.84 µM) | MIC50 (Actinomyces naeslundii): 1 µg/mL (≈ 5.84 µM) | MIC90 (Actinomyces naeslundii): 128 µg/mL (≈ 748 µM) | MIC50 [7]: 0.5 µg/mL (≈ 2.92 µM) | MIC90 [7]: 1 µg/mL (≈ 5.84 µM) | MIC50 ([Clostridium] innocuum): 0.5 µg/mL (≈ 2.92 µM) | MIC90 ([Clostridium] innocuum): 4 µg/mL (≈ 23.4 µM) | MIC50 [8]: 16 µg/mL (≈ 93.5 µM) | MIC90 [8]: > 128 µg/mL | MIC50 [9]: 128 µg/mL (≈ 748 µM) | MIC90 [9]: > 128 µg/mL

Reference: ChEMBL document CHEMBL1671662, “In vitro activities of telavancin and six comparator agents against anaerobic bacterial isolates” (2009)
